This is an account of results in ChEMBL document CHEMBL3507680, “University of Dundee, Gates Library screen for HepG2 cell viability”.

This series in a line: Human HepG2 cell viability assay in 384 well format. It counts as toxicity, cell-based. Details: dose 125 nL, time 70.5 hour; concentration not given beside the values. The settings on record: HepG2 cells, read-out: Inhibition.
For the compound `Cc1cc(C(=O)N2CCN(c3nc4ccccc4s3)CC2)no1`, the cytotoxicity at 70.5 h came to 48.3%.
The result for `Cc1cnn(CC(C)NCc2csc(-c3cnn(C)c3)n2)c1` (stereo unspecified) reads 51.9%; that for `CN(C)C(=O)COC[C@]12COC[C@H]1CN(Cc1ccoc1)C2`, -6.16%; that for `O=C(CCC1CCCO1)NCCN1CCCCC1` (stereo unspecified), -3.64%.
`CN(C)C(=O)[C@H]1C[C@H]2[C@H](CCN2Cc2ccc3c(c2)OCO3)O1`: the cytotoxicity at 70.5 h is -14.7%.
For the compound `C=C(C)COCCNC(=O)N1CCc2c(cccc2OC)C1`, the cytotoxicity at 70.5 h amounted to 7.17%.
The result for `CCN1CCCC(CNC(=O)CCc2ccc(OC)c(F)c2)C1` (stereo unspecified) reads -14.6%.
The result for `CC(C)C(CNCc1cccc2c1OCO2)N1CCOCC1` (stereo unspecified) reads 3.33%; that for `O=S(=O)(c1ccccc1)N1CCCC(c2nccs2)C1` (stereo unspecified), -2%.
`CC1CCN(CCCNS(=O)(=O)c2cccc(F)c2)CC1`: the cytotoxicity at 70.5 h was -13.7%.
The result for `O=C(NCC1CCN(CCc2ccccc2)C1)c1c(F)cccc1F` (stereo unspecified) reads 14.6%; that for `N#Cc1ccc(N2CCCN(CCCn3cncn3)CC2)cc1`, -0.762%; that for `O=C(c1cccc(C2CCNC2)c1)N1CCC(N2CCC(O)CC2)CC1` (stereo unspecified), 44.2%.
With `Cc1ccc(CNC(=O)Nc2nnc(C3CC3)s2)n1C`, the cytotoxicity at 70.5 h is -0.672%.
The result for `CC(C)CN1Cc2cccc(NC(=O)Cc3ccon3)c2C1` reads -4.05%.
The result for `CC1CN(CC(=O)N2CCOCC2)CCN1Cc1nccn1C` (stereo unspecified) reads -2.16%; that for `CCOc1ccc(Cc2c(O)nc(SC)n(-c3ccccc3)c2=O)cc1`, -2.28%.
The result for `O=C(CS(=O)(=O)Cc1csc(-c2ccc(F)cc2)n1)NCC1CC1` reads -6.8%.
As to `COc1ccc(CNC(=O)NCc2ccc(C)cc2)cn1`, the cytotoxicity at 70.5 h was -7.46%.
`O=C(c1cc2c([nH]c1=O)CCC2)N1CCCCC1c1cccc(F)c1` (stereo unspecified): the cytotoxicity at 70.5 h was 2.02%.
Take `CN(C(=O)CN1CCCC1c1cnn(C)c1)C(C)(C)C#N` (stereo unspecified): the cytotoxicity at 70.5 h was determined as 1.19%.
Consider `CC1CN(Cc2nccn2C)CCN1c1ccc2nncn2n1` (stereo unspecified), for which the cytotoxicity at 70.5 h came out at 6.8%.
The result for `Cc1nc(C2CCCN2CC(=O)NCCc2ccc(Cl)cc2)no1` (stereo unspecified) reads -2.31%; that for `CC(c1nc(C2CC2)no1)N1CCN(Cc2cccnc2)CC1` (stereo unspecified), -6.99%; that for `CC(C)NC(=O)C1(Cc2ccccc2-c2cncnc2)CCCNC1` (stereo unspecified), -4.61%.
Turning to `COc1ccc(-c2nnc([C@H]3CCN(CC(C)(C)C)C3)o2)cc1`, the cytotoxicity at 70.5 h is -1.13%.
The result for `CCOc1ccc(-n2nnc(C(=O)O)c2-c2ccncc2)cc1` reads 12.9%; that for `CCNC(=O)C(C)NC(=O)Nc1ccccc1SC(F)(F)F` (stereo unspecified), -10.8%; that for `COc1cccc(COCC(=O)N2CCC(CC(N)=O)CC2)c1`, 4.02%.
The result for `CCCC1C=CCN1C(=O)c1cc(COc2ccccc2)[nH]n1` (stereo unspecified) reads -6.23%; that for `O=C(NCCO)c1sc2ncccc2c1C1CNCCO1` (stereo unspecified), -4.56%.
The result for `CCn1nc(C)c(CCn2ccnc2-c2cc3n(n2)CCNC3)c1C` reads -0.934%; that for `COc1ccc(CNc2c(N3CCN(C(C)=O)CC3)c(=O)c2=O)cc1`, -12.5%.
`O=C(C1CC(=O)N(c2ccccc2)C1)N1CCC2(CC1)OCCO2` (stereo unspecified): the cytotoxicity at 70.5 h was 5.21%.
The result for `CCOCC(=O)NC(C)Cc1ccccc1Br` (stereo unspecified) reads -4.95%; that for `CNC(=O)[C@H]1C[C@H]2OCC[C@H]2N(CCOc2ccc(Cl)cc2)C1`, -1.59%; that for `NC(=O)NC(=O)CCSCc1coc(-c2cccc(Cl)c2)n1`, -17.3%.
Turning to `COc1cccc(CC2CN(C3CCCCC3)CCO2)c1` (stereo unspecified), the cytotoxicity at 70.5 h came to 25.1%.
`NC(=O)c1ccc(NC(=O)Cn2cc(-c3ccccc3)ncc2=O)cc1`: the cytotoxicity at 70.5 h is -17.2%.
On to `CCOCc1cnc2n1CCN(Cc1scnc1C)C2C` (stereo unspecified), for which the cytotoxicity at 70.5 h is -3.25%.
The result for `Cc1ccc(CC(=O)N2CCOC(c3nc(C(C)(C)C)n[nH]3)C2)cn1` (stereo unspecified) reads -4.13%.
The result for `COc1ccccc1N1CCC(NCc2c(C)noc2C)C1` (stereo unspecified) reads 30%.
The result for `COc1cccc(OC)c1C(=O)N1CC(=O)N(C2CCC2)CC(O)C1` (stereo unspecified) reads -0.00128%; that for `CCn1c2c(ccc1=O)CC(NCc1cnn(C)c1)CC2` (stereo unspecified), -4.95%.
Regarding `COCc1nc(CNc2cc(C)nc(N3CCCCC3)n2)no1`, the cytotoxicity at 70.5 h is -7.86%.
In the case of `CCc1sc(C(=O)Nc2cnn(CC(=O)NC3CC3)c2)cc1C`, the cytotoxicity at 70.5 h was -8.41%.
The result for `Oc1cc(C2CCCCN2Cc2ccsc2)nc(-c2ccncc2)n1` (stereo unspecified) reads -9.16%.
`Cc1cccc(S(=O)(=O)NCc2cccc(CS(C)(=O)=O)c2)c1`: the cytotoxicity at 70.5 h came to 9.39%.
The result for `Nc1cc2c(nn1)CCN(C(=O)C1CCc3ccccc31)C2` (stereo unspecified) reads -11.2%; that for `COc1ccc(-c2nnc(C(C)N3CCOC(C)(C)C3)o2)cc1` (stereo unspecified), -5.79%; that for `O=C(NCc1cccs1)NCC1(O)CCc2ccccc2C1` (stereo unspecified), -5.04%.
The result for `CCCOCC(=O)N1CCCC(c2nnc(CN3CCCCC3)n2C)C1` (stereo unspecified) reads 9.63%; that for `CC1CCN(CCNC(=O)C2CCN(C(=O)NC(C)C)CC2)CC1`, -6.3%; that for `CC(C#N)CN(C)Cc1nc2c(cnn2C)c(=O)[nH]1` (stereo unspecified), -7.12%.
In the case of `COc1ccccc1-c1ccnc2nc(N3CCCCC3)[nH]c(=O)c12`, the cytotoxicity at 70.5 h was -15.7%.
The result for `CN(C)S(=O)(=O)N1CCOCC1CC(=O)NCCOc1ccccc1` (stereo unspecified) reads -15.5%; that for `CCn1nc(C)c(CN(CCOC)C(=O)c2ccc(=O)[nH]n2)c1C`, -4.87%.
As to `CC(Cn1cccn1)NCc1ccc(OCc2ccncc2)cc1` (stereo unspecified), the cytotoxicity at 70.5 h was 3.19%.
Take `Cc1[nH]ncc1C(=O)N1CCOC(c2cccs2)C1` (stereo unspecified): the cytotoxicity at 70.5 h stood at 25.7%.
For the compound `Cc1cnc(N2CC3(CCN(Cc4cccnc4)C3)C2)nc1`, the cytotoxicity at 70.5 h was -13.4%.
The result for `O=C(NCCc1ccccn1)c1n[nH]c2c1CCC2` reads -5.6%; that for `CC(C)CCN(C(=O)c1nc(S(C)(=O)=O)n2ccccc12)C1CC1`, -1.14%.
The result for `CCc1ccc(CN2CC[C@H]3[C@H]2CC(=O)N3Cc2cccc(C)n2)o1` reads -7.64%; that for `CCN(CC)C(=O)CN1CCCC(c2nc(C)c3c(n2)N(C)CCC3)C1` (stereo unspecified), 0.707%; that for `CCCn1nccc1-c1cc(C2CCN(S(C)(=O)=O)CC2)ccn1`, -6.09%.
On to `N#Cc1cccc(N2CCCC3(CN(C(=O)[C@H]4CCCO4)CCO3)C2)c1` (stereo partly specified), for which the cytotoxicity at 70.5 h was -0.958%.
The result for `Cc1nn(C)c(C)c1C1CCCN1Cc1nc(C2CC2)no1` (stereo unspecified) reads 36.6%; that for `CC1CN(C)c2ccccc2N(C(=O)c2ccc(=O)n(C)c2)C1` (stereo unspecified), 6.89%; that for `CN(C)S(=O)(=O)c1ccc(CNC(=O)C2CC2)cc1`, 1.13%.
The result for `Cc1nc(C)n(CC2CN(CCOc3cccc(C#N)c3)CCO2)n1` (stereo unspecified) reads -6.4%; that for `Cc1ccc2c(c1)N(C(=O)c1cc[nH]c(=O)c1)CC(C)O2` (stereo unspecified), -1.21%; that for `O=C(NCc1ccc(OCC2CC2)nc1)c1c(F)cccc1F`, -3.71%.
Consider `O=C1CCC2(CCCN(Cc3nccs3)C2)N1CC1CC1` (stereo unspecified), for which the cytotoxicity at 70.5 h amounted to 10.7%.
The result for `COc1cccc(COCC(=O)NC(C(N)=O)c2ccccc2F)c1` (stereo unspecified) reads 12%.
The result for `COc1ccc(-c2noc(C3=NN(C)C(=O)CC3)n2)cc1OC` reads -3.46%; that for `COc1ccccc1CNC(=O)COc1c(C)n(C)ccc1=O`, -20.3%.
The result for `COc1ccc(CN2CCC3(CC(=O)N(c4cncnc4)C3)C2)cc1` (stereo unspecified) reads -15.2%; that for `O=C(CCn1cccn1)NCC(c1cccs1)N1CCCC1` (stereo unspecified), -5.3%; that for `Cc1cnn(-c2cccc(N3CCN(c4cc(C)nc(C)n4)CC3)n2)c1`, 15.5%.
For `CN(CCCc1cnn(C)c1)Cc1cc2n(n1)CCCN(C)C2`, the cytotoxicity at 70.5 h was -7.1%.
The result for `COc1cc(NC(=O)c2cscn2)ncn1` reads 22.1%; that for `CC(=O)N1CCN(c2cnccn2)CC(CO)C1` (stereo unspecified), -5.92%; that for `CC(C)c1nc(C2CCCN2Cc2ccn(C)c(=O)c2)no1` (stereo unspecified), -0.609%.
For the compound `CC(C)=CCN1CCN(Cc2nccn2C)C(C)C1` (stereo unspecified), the cytotoxicity at 70.5 h turned out to be 22%.
As to `CN1CCCC(CNC(=O)N(C)Cc2ccc(Cl)c(F)c2)C1` (stereo unspecified), the cytotoxicity at 70.5 h was found to be 7.7%.
The result for `Cc1cccc(CN2CCS(=O)(=O)[C@@H]3CCN(C(=O)C4CC4)CC[C@@H]32)n1` reads 15.9%; that for `Cc1nn(C)c(C)c1C(=O)NN1CCOCC1`, -6.78%.
Consider `CC(=O)OC1CN(c2nc3c(C)cccc3s2)C1`, for which the cytotoxicity at 70.5 h was -15.1%.
The result for `CC(=O)N1CCN(C(=O)NCCCN(C)S(C)(=O)=O)CC1` reads -5.97%; that for `CCn1ncc(-c2cc(C(F)F)nc3sc(C(N)=O)c(N)c23)c1C`, 9.78%; that for `CC(C)(C)C(=O)N1CCN(Cn2nccc2-c2cccnc2)CC1`, -3.16%.
Consider `CCc1ccc(OCC(O)CN2CCN(CCO)CC2)cc1` (stereo unspecified), for which the cytotoxicity at 70.5 h was -3.3%.
The result for `O=C(NCCCn1nc2ccccn2c1=O)NCc1ccccc1` reads -0.996%.
The result for `c1cnc(N2CCC3(CCN(CC4CCCC4)CC3)C2)nc1` reads -1.07%; that for `Cc1nc(CCN2CCC(Oc3ccccc3F)CC2)c(C)s1`, 8.34%.
On to `OCC1(O)CCCN(Cc2ccc(-c3cc[nH]n3)s2)CC1` (stereo unspecified), for which the cytotoxicity at 70.5 h is -9.87%.
The result for `CCN(CC1CCOC1)C(=O)c1nc(-c2ccco2)sc1C` (stereo unspecified) reads -2.01%; that for `CN(C)S(=O)(=O)N1CCN(Cc2ccnc(N3CCCC3)n2)CC1`, -1.31%; that for `COc1cccc(Cn2ncnc2CCSC)c1`, -12.2%.
As to `Cc1cnn(CCNCc2cc(C)no2)c1`, the cytotoxicity at 70.5 h came out at 2.88%.
For `CC(C)n1ccnc1C1CCCN(c2ncccc2C(N)=O)C1` (stereo unspecified), the cytotoxicity at 70.5 h is -0.947%.
